# Laboratory results: the supplement of paper PMC10307832
# Compound: COc1cc(-c2nn([C@H]3CC[C@H](N4CCN(C(C)=O)CC4)CC3)c3ncnc(N)c23)ccc1NC(=O)c1cc2ccccc2n1C + Cc1nc(NC(=O)N2CCC[C@H]2C(N)=O)sc1-c1ccnc(C(C)(C)C(F)(F)F)c1 [Alpelisib] (partner 2 µM)
# Test: relative viability (nuclei count vs DMSO), 5 days (fraction); higher = more cells survive
# Conditions: first compound 0.0128 µM
# In short: (§1)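 The day after seeding in 1536-well plates, lung cancer cell lines were treated by pin tool with a single drug, or with a fixed anchor-drug dose together with five library-drug doses (not always all listed) in √10 steps. After 5 days, a combined fix-and-stain solution (final 0.05% Triton X-100, 1% formaldehyde, 1 ug/ml Hoechst) was added. Nuclei counted on 4× images gave relative viability as treated counts over vehicle counts, reported as the median of duplicate plates.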
row,Cell Line,relative viability
1,NCI-H3122,0.753
2,NCI-H1437,0.968
3,NCI-H1755,1.04
4,NCI-H2023,0.607
5,HCC-15,0.963
6,NCI-H1793,0.734
7,PC-14,1.01
8,EKVX,0.827
9,LC-2-ad,1.01
10,NCI-H1944,0.827
11,NCI-H1975,0.659
12,RERF-LC-KJ,0.811
13,PC-3 [JPC-3],1.04

# Same assay, conditions: first compound 0.04048 µM
row,Cell Line,relative viability
1,NCI-H1437,0.992
2,NCI-H1755,0.992
3,NCI-H2023,0.651
4,HCC-15,0.886
5,NCI-H1793,0.682
6,PC-14,0.951
7,EKVX,1.09
8,LC-2-ad,0.931
9,NCI-H1944,0.879
10,NCI-H1975,0.757
11,RERF-LC-KJ,0.717
12,PC-3 [JPC-3],1.09

# Same assay, conditions: first compound 0.128 µM
row,Cell Line,relative viability
1,NCI-H3122,0.772
2,NCI-H1437,0.897
3,NCI-H1755,0.884
4,NCI-H2023,0.546
5,HCC-15,0.864
6,NCI-H1793,0.595
7,PC-14,0.902
8,EKVX,0.75
9,LC-2-ad,0.872
10,NCI-H1944,0.784
11,NCI-H1975,0.547
12,RERF-LC-KJ,0.555
13,PC-3 [JPC-3],1.04

# Same assay, conditions: first compound 1.28 µM
row,Cell Line,relative viability
1,NCI-H3122,0.537
2,NCI-H1437,0.757
3,NCI-H1755,0.656
4,NCI-H2023,0.521
5,HCC-15,0.662
6,NCI-H1793,0.442
7,PC-14,0.852
8,EKVX,0.509
9,LC-2-ad,0.699
10,NCI-H1944,0.506
11,NCI-H1975,0.257
12,RERF-LC-KJ,0.654
13,PC-3 [JPC-3],1.09

# Compound: CO[C@@H]1[C@H](N(C)C(=O)c2ccccc2)C[C@H]2O[C@]1(C)n1c3ccccc3c3c4c(c5c6ccccc6n2c5c31)C(=O)NC4 [Midostaurin] + CC1(C)CCC(c2ccc(Cl)cc2)=C(CN2CCN(c3ccc(C(=O)NS(=O)(=O)c4ccc(N[C@H](CCN5CCOCC5)CSc5ccccc5)c(S(=O)(=O)C(F)(F)F)c4)cc3)CC2)C1 [Navitoclax] (partner 0.5 µM)
# Test: as above
# Conditions: first compound 0.01 µM
# In short: as §1
row,Cell Line,relative viability
1,NCI-H3122,1.07
2,NCI-H1437,1.13
3,NCI-H1755,0.966
4,NCI-H2023,1.07
5,HCC-15,0.721
6,NCI-H1793,0.417
7,PC-14,0.973
8,EKVX,0.907
9,LC-2-ad,0.477
10,NCI-H1944,1.03
11,NCI-H1975,1.13
12,RERF-LC-KJ,1.02
13,PC-3 [JPC-3],0.752

# Same assay, conditions: first compound 0.03162 µM
row,Cell Line,relative viability
1,NCI-H3122,0.993
2,NCI-H1437,1.03
3,NCI-H1755,0.927
4,NCI-H2023,0.898
5,HCC-15,0.697
6,NCI-H1793,0.533
7,PC-14,1.01
8,EKVX,0.955
9,LC-2-ad,0.405
10,NCI-H1944,1.18
11,NCI-H1975,1.07
12,RERF-LC-KJ,1.05
13,PC-3 [JPC-3],0.777

# Same assay, conditions: first compound 0.1 µM
row,Cell Line,relative viability
1,NCI-H3122,1.03
2,NCI-H1437,1.07
3,NCI-H1755,0.828
4,NCI-H2023,0.92
5,HCC-15,0.71
6,NCI-H1793,0.513
7,PC-14,0.985
8,EKVX,0.893
9,LC-2-ad,0.439
10,NCI-H1944,1.11
11,NCI-H1975,1.04
12,RERF-LC-KJ,1.19
13,PC-3 [JPC-3],0.791

# Same assay, conditions: first compound 0.3162 µM
row,Cell Line,relative viability
1,NCI-H3122,1.04
2,NCI-H1437,1.12
3,NCI-H1755,0.627
4,NCI-H2023,0.903
5,HCC-15,0.704
6,NCI-H1793,0.493
7,PC-14,0.965
8,EKVX,0.905
9,LC-2-ad,0.224
10,NCI-H1944,1.15
11,NCI-H1975,0.818
12,RERF-LC-KJ,0.998
13,PC-3 [JPC-3],0.851

# Compound: CO[C@@H]1[C@H](N(C)C(=O)c2ccccc2)C[C@H]2O[C@]1(C)n1c3ccccc3c3c4c(c5c6ccccc6n2c5c31)C(=O)NC4 [Midostaurin] + COc1cc2c(Oc3ccc(NC(=O)C4(C(=O)Nc5ccc(F)cc5)CC4)cc3F)ccnc2cc1OCCCN1CCOCC1 [Foretinib] (partner 0.25 µM)
# Test: as above
# Conditions: first compound 0.01 µM
# In short: as §1
row,Cell Line,relative viability
1,NCI-H3122,0.926
2,NCI-H1437,1.26
3,NCI-H1755,0.944
4,NCI-H2023,0.856
5,HCC-15,1.08
6,NCI-H1793,0.674
7,PC-14,0.984
8,EKVX,0.824
9,LC-2-ad,0.919
10,NCI-H1944,0.893
11,NCI-H1975,0.925
12,RERF-LC-KJ,0.915
13,PC-3 [JPC-3],1.05

# Same assay, conditions: first compound 0.03162 µM
row,Cell Line,relative viability
1,NCI-H3122,0.94
2,NCI-H1437,1.09
3,NCI-H1755,0.848
4,NCI-H2023,0.984
5,HCC-15,0.856
6,NCI-H1793,0.644
7,PC-14,0.924
8,EKVX,0.76
9,LC-2-ad,0.897
10,NCI-H1944,0.899
11,NCI-H1975,1.01
12,RERF-LC-KJ,0.866
13,PC-3 [JPC-3],0.942
